The values below come from publication PMC4467461, “Small-molecule activation of SERCA2a SUMOylation for the treatment of heart failure” (Nature Communications, 2015).

Molecules are shown by their SMILES. “Also recorded” adds a separate entry of the source.

Data set [1] deals with T1, Recombinant human SUMO-specific E1 (Homo sapiens, UniProt Q9UBT2).
T1 construct: purchased R&D Systems
Description: SUMO E1 ATP hydrolysis, fluorogenic pyrophosphate assay. The format is biochemical. To be noted: E1 0.05 μM, Ubc9 0.25 μM, SUMO-1 12.5 μM, ATP 1 mM, 30 min at 37 °C; read-out: ATP-dependent activation of SUMO E1, EC50. Here is the method: Figure 3 SUMO-specific activating enzyme, E1, is a direct target of N106. Mechanism of action of N106 on individual steps in the SUMOylation cascade in vitro. (a) Inorganic pyrophosphate resulting from ATP hydrolysis in E1-catalysed SUMO-1 activation in the presence of increasing concentration of N106 compound was assessed by fluorogenic pyrophosphate assay kit. Recombinant human SUMO-specific E1 (0.05 μM), human Ubc9 (0.25 μM), human SUMO-1 (12.5 μM) and ATP (1 mM) were incubated with increasing concentration of N106 for 30 min at 37 °C and quantified using a fluorescence microplate reader. (b) The SAE2-SUMO-1 conjugation was detected followed by western blotting with anti-SAE2 antibodies. […] (e) ATP hydrolytic activity of WT and mutant SUMO E1 are determined. (f) The E1-SUMO-1 conjugation was detected followed by western blot analysis with anti-SAE2 antibody. *The SAE2-SUMO-1 conjugated bands. […]
Biochemical activity of SUMO-specific E1 enzymes was examined by ATPase assay and in-vitro gel-shifting assays. ATP hydrolysis activity of E1 enzymes was measured by using pyrophosphate assay kit (Abcam Inc.). […] The E1-thioester formation was analysed in reaction mixtures containing 0.05 μM E1, 12.5 μM SUMO-1 and 1 mM ATP with N106 or DMSO. The E1-dependent E2-SUMO-1 thioester formation was assessed using reaction containing 0.05 μM E1, 0.25 μM E2, 12.5 μM SUMO-1 and 1 mM ATP with N106 or DMSO. […]

Data set [2] relates to NCI-60 human tumour cell lines. Description: NCI-60 human tumour cell screen (sulforhodamine B). The format is cell-based. To be noted: single dose 10^-5 M, 48 hours, 60 tumor cell panels incl. MDA-MB-231. The source says: One concern about an agent that enhances SUMOylation is off-target effects including tumour growth. Several studies reported direct involvement of SUMO E1 in the setting of cancer. In patients with hepatocellular carcinoma, UBA2 gene expression was higher and directly correlated with lower survival rate[25]. SUMO E1 was also reported to be an important factor for myc-dependent tumour growth in mice and there is a correlation between low SUMO E1 gene expression and longer metastasis-free survival rate of patients with myc-high breast cancers. Thus, we sought to determine whether N106 would have an effect on cancer cell growth. We performed the NCI-60 human tumour cell screen used by the National Cancer Institute’s Developmental Therapeutics Program (http://dtp.cancer.gov/docs/compare/compare.html). The NCI-60 set includes leukemia, lymphomas and carcinomas of ovarian, renal, breast, prostate, colon, lung and central nervous system origin.
Supplementary Figure 12. NCI 60 cell screening. N106 submitted to the NCI 60 cell screen
has been tested initially at a single high dose of 10^-5 M in 60 different tumor cell panels. 48 hours
after compound treatment, cell density and proliferation was determined by sulforhodamine B

T1 sequence (Q9UBE0 whole entry): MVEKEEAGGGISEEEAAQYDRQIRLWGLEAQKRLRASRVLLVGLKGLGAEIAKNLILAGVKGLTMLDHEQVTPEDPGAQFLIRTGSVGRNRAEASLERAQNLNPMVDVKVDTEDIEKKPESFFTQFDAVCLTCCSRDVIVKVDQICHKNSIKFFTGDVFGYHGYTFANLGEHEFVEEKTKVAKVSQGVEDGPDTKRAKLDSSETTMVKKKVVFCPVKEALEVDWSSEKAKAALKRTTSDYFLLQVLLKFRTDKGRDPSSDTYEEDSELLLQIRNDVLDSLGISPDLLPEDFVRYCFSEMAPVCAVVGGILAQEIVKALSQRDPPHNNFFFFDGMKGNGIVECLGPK
T1 sequence (Q9UBT2 whole entry): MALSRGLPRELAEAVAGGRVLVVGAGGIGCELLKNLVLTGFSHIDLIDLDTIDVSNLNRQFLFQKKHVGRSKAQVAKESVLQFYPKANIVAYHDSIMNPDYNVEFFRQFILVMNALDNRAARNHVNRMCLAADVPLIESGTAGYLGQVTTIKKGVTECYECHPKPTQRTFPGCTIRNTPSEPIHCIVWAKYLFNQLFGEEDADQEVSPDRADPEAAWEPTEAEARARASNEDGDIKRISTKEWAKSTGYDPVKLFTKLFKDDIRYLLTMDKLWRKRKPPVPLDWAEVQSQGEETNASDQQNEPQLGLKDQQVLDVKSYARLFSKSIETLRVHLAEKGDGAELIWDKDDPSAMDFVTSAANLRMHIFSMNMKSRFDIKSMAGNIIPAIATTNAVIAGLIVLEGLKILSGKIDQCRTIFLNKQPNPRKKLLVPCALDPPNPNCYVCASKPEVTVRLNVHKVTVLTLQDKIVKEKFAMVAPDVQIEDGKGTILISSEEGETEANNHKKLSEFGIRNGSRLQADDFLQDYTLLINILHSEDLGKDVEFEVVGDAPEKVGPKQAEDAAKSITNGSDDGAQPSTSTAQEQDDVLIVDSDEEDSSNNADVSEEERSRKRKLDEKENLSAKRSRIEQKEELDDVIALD

On to `COc1ccc(-c2nnc(Nc3nc4c(OC)cccc4s3)o2)cc1` [Compound N106, N-(4-methoxybenzo[d]thiazol-2-yl)-5-(4-methoxyphenyl)-1,3,4-oxadiazol-2-amine], for which, in data set [1], the EC50 – broadly, the midpoint of the concentration-response curve – was determined as 2450 ± 130 nM. The “tumour cell growth and proliferation” value in data set [2] was “has not shown any significant oncogenic activity; also recorded: did not induce any tumour cell growth and proliferation”.
